Assay results taken from ChEMBL document CHEMBL5537171, “Design, Synthesis, and Biological Evaluation of Potent and Selective PROTAC Degraders of Oncogenic KRASG12D” (J Med Chem, 2024).
Calls of active or inactive are those of the source. The rule behind the calls is not given here.

Legend:
[1] = tested on: von Hippel-Lindau disease tumor suppressor/GTPase KRas (Homo sapiens), P01116+P40337 [G12D]; assay: PROTAC activity at VHL/KRAS G12D mutant in human ASPC1 cells assessed as induction of protein degradation at 1 uM pretreated with (2S,4R)-1-((S)-2-acetamido-3,3-dimethylbutanoyl)-4-hydroxy-N-((S)-1-(4-(4-methylthiazol-5-yl)phenyl)ethyl)pyrrolidine-2-carboxamide followed by compound treatment for 6 hrs by Western blot analysis; type: cell-based
[2] = tested on: von Hippel-Lindau disease tumor suppressor/GTPase KRas (Homo sapiens), P01116+P40337 [G12D]; assay: In vivo PROTAC activity at VHL/KRAS G12D mutant in human ASPC1 cells xenografted in BALB/c nude mouse assessed as induction of protein degradation at 50 mg/kg, sc measured for >24 hrs; type: functional, organism-based
[3] = tested on: NCI-H1975; assay: Antiproliferative activity against human NCI-H1975 cells harboring wild-type KRAS assessed as inhibition of cell viability incubated for 5 days by Cell Titer Glo assay; type: functional, cell-based; conditions: NCI-H1975, 120 h
[4] = tested on: SNU1; assay: Antiproliferative activity against human SNU1 cells harboring KRAS G12D mutant assessed as inhibition of cell viability incubated for 5 days by Cell Titer Glo assay; type: functional, cell-based; conditions: SNU1, 120 h
[5] = target: von Hippel-Lindau disease tumor suppressor/GTPase KRas (Homo sapiens) (UniProt P01116+P40337); assay: PROTAC activity at VHL/KRAS in human NCI-H1975 cells assessed as induction of protein degradation at 0.1 uM incubated for 24 hrs by Western blot analysis; type: cell-based
[6] = tested on: Panc 04.03; assay: Antiproliferative activity against human Panc 04.03 cells harboring KRAS G12D mutant assessed as inhibition of cell viability incubated for 5 days by Cell Titer Glo assay; type: functional, cell-based; conditions: Panc 04.03, 120 h
[7] = tested on: von Hippel-Lindau disease tumor suppressor/GTPase KRas (Homo sapiens), P01116+P40337 [G12D]; assay: PROTAC activity at VHL/KRAS G12D mutant in human ASPC1 cells assessed as induction of protein degradation incubated for 24 hrs by Western blot analysis relative to control; type: cell-based
[8] = target: T1, von Hippel-Lindau disease tumor suppressor/GTPase KRas (Homo sapiens, UniProt P01116+P40337, G12D); assay: PROTAC activity at VHL/KRAS G12D mutant in human SNU1 cells assessed as inhibition of pERK level incubated for 24 hrs by Western blot analysis; type: cell-based
[9] = Selectivity index, ratio of IC50 for human ASPC1 cells assessed as inhibition of cell viability incubated for 6 hrs followed by compound washout measured after 114 hrs by Cell Titer Glo assay to IC50 for human ASPC1 cells assessed as inhibition of cell viability incubated for 120 hrs of continuous treatment by Cell Titer Glo assay; type: functional
[10] = tested on: AGS; assay: Antiproliferative activity against human AGS cells harboring KRAS G12D mutant assessed as inhibition of cell viability incubated for 5 days by Cell Titer Glo assay; type: functional, cell-based; conditions: 120 h
[11] = tested on: von Hippel-Lindau disease tumor suppressor/GTPase KRas (Homo sapiens), P01116+P40337 [G12D]; assay: PROTAC activity at VHL/KRAS G12D mutant in human SNU1 cells assessed as decrease in pERK level at 1 uM incubated upto 24 hrs by Western blot analysis; type: cell-based
[12] = Toxicity in BALB/c nude mouse xenografted with human ASPC1 cells assessed as notable toxic symptoms at 50 mg/kg, sc for 22 days; type: organism-based; conditions: in vivo, 528 h, time 22 day
[13] = tested on: von Hippel-Lindau disease tumor suppressor/GTPase KRas (Homo sapiens), P01116+P40337 [G13D]; assay: PROTAC activity at VHL/KRAS G13D mutant in human HCT-116 cells assessed as induction of protein degradation at 0.1 uM incubated for 24 hrs by Western blot analysis; type: cell-based
[14] = Tmax in BALB/c mouse at 10 mg/kg, sc by LC-MS/MS analysis; type: ADME, organism-based; conditions: in vivo
[15] = tested on: von Hippel-Lindau disease tumor suppressor/GTPase KRas (Homo sapiens), P01116+P40337 [G12C]; assay: PROTAC activity at VHL/KRAS G12C mutant in human NCI-H358 cells assessed as induction of protein degradation at 1 uM incubated for 24 hrs by Western blot analysis relative to control; type: cell-based
[16] = Drug uptake in human ASPC1 cells at 10 uM incubated for 1 hr by MS analysis; type: ADME, cell-based; conditions: aspc1, 1 h
[17] = tested on: von Hippel-Lindau disease tumor suppressor/GTPase KRas (Homo sapiens), P01116+P40337 [G12D]; assay: In vivo PROTAC activity at VHL/KRAS G12D mutant in human ASPC1 cells xenografted in BALB/c nude mouse assessed as decrease in pERK level at 50 mg/kg, sc measured for 24 hrs by Western blot analysis; type: functional, organism-based
[18] = target: T1, von Hippel-Lindau disease tumor suppressor/GTPase KRas; assay: PROTAC activity at VHL/KRAS G12D mutant in human ASPC1 cells assessed as induction of protein degradation incubated for 24 hrs by Western blot analysis; type: cell-based; conditions: read-out: DC50
[19] = tested on: von Hippel-Lindau disease tumor suppressor/GTPase KRas (Homo sapiens), P01116+P40337 [G12D]; assay: PROTAC activity at VHL/KRAS G12D mutant in human ASPC1 cells assessed as induction protein degradation at 1 uM measured for 2 to 24 hrs by Western blot analysis; type: cell-based; conditions: time 2-24 hrs
[20] = tested on: HPAF-II; assay: Antiproliferative activity against human HPAF-II cells harboring KRAS G12D mutant assessed as inhibition of cell viability incubated for 5 days by Cell Titer Glo assay; type: functional, cell-based; conditions: 120 h
[21] = tested on: von Hippel-Lindau disease tumor suppressor/GTPase KRas (Homo sapiens), P01116+P40337 [G12D]; assay: PROTAC activity at VHL/KRAS G12D mutant in human ASPC1 cells assessed as induction of protein degradation at 1 uM pretreated with BafA1 followed by compound treatment for 6 hrs by Western blot analysis; type: cell-based
[22] = tested on: ASPC1; assay: Downregulation of DUSP4 mRNA level in human ASPC1 cells at 0.1 to 1 uM incubated for 6 hrs by RT-qPCR analysis; type: functional, cell-based; conditions: dose 0.1-1 µM
[23] = target: T1, von Hippel-Lindau disease tumor suppressor/GTPase KRas; assay: PROTAC activity at VHL/KRAS G12D mutant in human PANC-1 cells assessed as induction of protein degradation incubated for 24 hrs by Western blot analysis; type: cell-based
[24] = tested on: NCI-H358; assay: Antiproliferative activity against human NCI-H358 cells harboring KRAS G12C mutant assessed as inhibition of cell viability incubated for 5 days by Cell Titer Glo assay; type: functional, cell-based; conditions: NCI-H358, 120 h
[25] = tested on: ASPC1; assay: Downregulation of KRT5 level in human ASPC1 cells at 0.1 uM incubated for 6 hrs by DIA-based proteomic analysis; type: functional, cell-based
[26] = tested on: von Hippel-Lindau disease tumor suppressor/GTPase KRas (Homo sapiens), P01116+P40337 [G12D]; assay: In vivo PROTAC activity at VHL/KRAS G12D mutant in human ASPC1 cells xenografted in BALB/c nude mouse assessed as induction of protein degradation at 50 mg/kg, sc measured for 3 to 72 hrs by Western blot analysis; type: functional, organism-based; conditions: time 3-72 hrs
[27] = tested on: von Hippel-Lindau disease tumor suppressor/GTPase KRas (Homo sapiens), P01116+P40337 [G12D]; assay: PROTAC activity at VHL/KRAS G12D mutant in human ASPC1 cells assessed as induction of protein degradation at 0.1 uM incubated for 24 hrs by Western blot analysis relative to control; type: cell-based
[28] = tested on: ASPC1; assay: Antiproliferative activity against human ASPC1 cells assessed as inhibition of cell viability incubated for 120 hrs of continuous treatment by Cell Titer Glo assay; type: functional, cell-based; conditions: ASPC1, 120 h
[29] = tested on: ASPC1; assay: Antitumor activity in human ASPC1 cells xenografted in BALB/c nude mouse assessed as tumor growth inhibition at 30 mg/kg, ip bid for 22 days relative to control; type: functional; conditions: ASPC1, 528 h, time 22 day, read-out: TGI
[30] = tested on: ASPC1; assay: Antitumor activity in human ASPC1 cells xenografted in BALB/c nude mouse assessed as tumor growth inhibition at 50 mg/kg, sc administered once daily for 22 days relative to control; type: functional; conditions: ASPC1, 528 h, time 22 day, read-out: TGI

T1 sequence (P01116 whole entry G12D, stated change not applied): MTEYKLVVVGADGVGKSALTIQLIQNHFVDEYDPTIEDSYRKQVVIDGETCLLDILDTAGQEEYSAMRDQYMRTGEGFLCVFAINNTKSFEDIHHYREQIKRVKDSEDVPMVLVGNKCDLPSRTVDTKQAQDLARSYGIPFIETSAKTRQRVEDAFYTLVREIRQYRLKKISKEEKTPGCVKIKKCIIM
T1 sequence (P40337 whole entry, stated change not applied): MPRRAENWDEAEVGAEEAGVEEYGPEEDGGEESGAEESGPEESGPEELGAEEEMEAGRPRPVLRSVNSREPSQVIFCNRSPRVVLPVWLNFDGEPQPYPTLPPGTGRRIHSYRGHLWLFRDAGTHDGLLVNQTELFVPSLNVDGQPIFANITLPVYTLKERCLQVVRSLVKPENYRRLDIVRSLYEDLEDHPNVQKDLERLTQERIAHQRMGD
Chain of von Hippel-Lindau disease tumor suppressor/GTPase KRas (Homo sapiens), P01116+P40337 [G12D] (P01116 whole entry G12D): as the sequence (P01116 whole entry G12D, stated change not applied) above
Chain of von Hippel-Lindau disease tumor suppressor/GTPase KRas (Homo sapiens), P01116+P40337 [G12D] (P40337 whole entry partner): as the sequence (P40337 whole entry, stated change not applied) above
Chain of von Hippel-Lindau disease tumor suppressor/GTPase KRas (Homo sapiens) (P01116 whole entry, looked up): as the sequence (P01116 whole entry G12D, stated change not applied) above, with D12G counted along it
Chain of von Hippel-Lindau disease tumor suppressor/GTPase KRas (Homo sapiens) (P40337 whole entry, looked up): as the sequence (P40337 whole entry, stated change not applied) above

**Q.** Which Activity [1] does the source give for `CCc1c(F)ccc2cc(O)cc(-c3ncc4c(N5C[C@H]6CC[C@@H](C5)N6)nc(OC[C@@H]5CCCN5CCCCOCC(=O)N[C@H](C(=O)N5C[C@H](O)C[C@H]5C(=O)N[C@@H](C)c5ccc(-c6scnc6C)cc5)C(C)(C)C)nc4c3F)c12` here?
**A.** Its Activity is “inactive”.

**Q.** What about the Activity [2] of the same molecule?
**A.** Its Activity is “Active”.

**Q.** And the IC50 [3]?
**A.** Its IC50 is over 10000 nM.

**Q.** And the IC50 [4]?
**A.** Its IC50 is 43.5 nM.

**Q.** And the Activity [5]?
**A.** The Activity was “inactive”.

**Q.** And the IC50 [6]?
**A.** Its IC50 is 51.5 nM.

**Q.** And the Emax [7]?
**A.** The Emax was 98.9%.

**Q.** What about the IC50 [8] of the same molecule?
**A.** The IC50 was 17.7 nM.

**Q.** And the “Ratio IC50” value [9]?
**A.** The value was 3.78.

**Q.** And the IC50 [10]?
**A.** Its IC50 is 31.4 nM.

**Q.** And the Activity [11]?
**A.** Its Activity is “Active”.

**Q.** What about the Activity [12] of the same molecule?
**A.** Its Activity is “Non-Toxic”.

**Q.** And the Activity [13]?
**A.** Its Activity is “inactive”.

**Q.** What about the Tmax [14] of the same molecule?
**A.** Its Tmax is 15 min.

**Q.** What about the Activity [15] of the same molecule?
**A.** Its Activity is 37.4%.

**Q.** What about the Drug uptake [16] of the same molecule?
**A.** The Drug uptake was “Active”.

**Q.** And the Activity [17]?
**A.** Its Activity is “Active”.

**Q.** And the DC50 [18]?
**A.** The DC50 was 38.1 nM.

**Q.** What about the Activity [19] of the same molecule?
**A.** Its Activity is “Active”.

**Q.** And the IC50 [20]?
**A.** The IC50 was 45.2 nM.

**Q.** And the Activity [21]?
**A.** Its Activity is “Active”.

**Q.** And the Activity [22]?
**A.** The Activity was “Active”.

**Q.** And the DC50 [23]?
**A.** Its DC50 is 87.8 nM.

**Q.** What about the IC50 [24] of the same molecule?
**A.** Its IC50 is over 9000 nM.

**Q.** And the Activity [25]?
**A.** The Activity was “Active”.

**Q.** What about the Activity [26] of the same molecule?
**A.** Its Activity is “Active”.

**Q.** What about the Activity [27] of the same molecule?
**A.** The Activity was 75.8%.

**Q.** And the IC50 [28]?
**A.** Its IC50 is 61.1 nM.

**Q.** And the inhibition in vivo at 30 mg/kg [29]?
**A.** The inhibition in vivo at 30 mg/kg was 89.1%.

**Q.** What about the inhibition in vivo at 50 mg/kg [30] of the same molecule?
**A.** The inhibition in vivo at 50 mg/kg was 68.6%.
